# Non-standard residues stand in square brackets, D forms with d. Residues, ends and D or L forms follow the SMILES beside them. Nspe = C[C@H](NCC(=O)O)c1ccccc1; Nphe = O=C(O)CNCc1ccccc1; Nlys = NCCCCNCC(=O)O
# Legend:
# red blood cells = experiment: Hemolytic activity on red blood cells; assay type: cell-based, mouse
# Experimental: In order to identify, through red blood cell hemolytic activity in mice, whether the peptoids synthesized in Preparation Example 1 are cytotoxic, red blood cells isolated from 10 mL of mouse blood were washed three times with phosphate-buffered saline (PBS, mixed solution of 35 mM phosphate buffer/150 mM NaCl, pH 7.4), and then centrifuged at a centrifugal force of 1,000 ×g for 10 minutes. A 10% (v/v) red blood cell solution diluted with PBS was dispensed into a 96-well microtiter plate at 150 μL each, and then a peptide solution was added at 50 μL each. Thereafter, the 96-well microtiter plate was incubated at a temperature of 37° C. for 1 hour.
# The incubated 96-well microtiter plate was centrifuged at a centrifugal force of 1,000×g for 5 minutes. Thereafter, supernatant was taken at 100 μL each and transferred to a new 96-well microtiter plate. Then, absorbance at a wavelength of 540 nm was measured (Table 6).
# In this case, a value obtained in a case of being treated with 0.1% (v/v) Triton X-100 was set as 100% hemolysis, and hemolytic activity (degree of cell destruction) of the peptoids was calculated using the following Equation 1. In the Equation 1, A is absorbance of the peptoid solution at a wavelength of 540 nm, B is absorbance of 0.1% Triton X-100 at a wavelength of 540 nm, and C is absorbance of the PBS solution at a wavelength of 540 nm. In this case, Peptoid NO. […] Degree of cell destruction (% hemolysis)=(A−C)/(B−C)[…] [Equation 1]
# In Table 6, HD10 means a peptoid concentration which causes 10% hemolysis of red blood cells, and HD50 means a peptoid concentration which causes 50% hemolysis of red blood cells. In addition, Hmax is a hemolysis rate (%) at 200 μM which is the highest peptoid concentration used in the experiment.
# Hemolytic activity of Peptoid NOS. 1, 18 to 23, and the peptide Pexiganan was measured in the same manner as in Experimental Example 2.
# E. coli strain ATCC25922 = assay type: cell-based; conditions: for MBC E. coli: ATCC25922; for MIC E. coli: ATCC25922, 18 h
# Experimental: (§1) In order to measure antimicrobial activity of the peptoids, Gram-positive S. aureus strain KCTC1621, or Gram-negative E. coli strain ATCC25922 was treated with the peptoids prepared in Preparation Example 1, and minimum inhibitory concentrations were measured. Peptoid NOS. 1 and 2 are already known peptoids and were used for the purpose of making a comparison with novel peptoids in terms of antimicrobial activity.
# (§2) Specifically, S. aureus strain KCTC1621 or E. coli strain ATCC25922 was inoculated into Mueller Hinton Broth (MHB2) liquid medium on which cations were adjusted, cultured at a temperature of 37° C. for 18 hours, and then subcultured for 4 hours. Thereafter, the strains were diluted with MHB2 liquid medium containing 0.2% bovine serum albumin and 0.01% acetic acid so that each bacterial number was 2×10^5 colony-forming units (CFU) per 1 mL, and dispensed into 96-well microtiter plates at 100 μL each. A peptoid stock which is 40-fold more concentrated than a concentration to be tested was added to each well at 2.5 μL or lower so that the peptoid stock was 2-fold serially diluted using sterile water. Thereafter, the plates were incubated at a temperature of 37° C. for 18 hours.
# (§3) Thereafter, absorbance was measured at a wavelength of 600 nm using a microplate reader (Bio-Rad). The lowest peptoid concentration that completely suppresses growth of microorganisms was measured by a minimum inhibitory concentration (MIC) and a minimum bactericidal concentration (MBC), and the measurement results are shown in Table 5 below. Each of the MIC values was calculated as an average value of numerical values obtained through three independent experiments.
# [1] = system: S. aureus strain KCTC1621; assay type: cell-based; conditions: for MBC S. aureus: KCTC1621; for MIC S. aureus: KCTC1621, 18 h
# Experimental: as §1, §2, §3
# E. coli = experiment: Selectivity analysis, HD10 divided by MIC for E. coli; conditions: HD10 of Table 6 divided by MIC for E. coli ATCC25922
# Experimental: In order to identify changes in selectivity depending on alteration of degree of folding in helical structure of peptoids, selectivity of each peptoid was calculated using the resultant values measured in the Experimental Examples 1 and 2. The selectivity was obtained by dividing the HD10 value by the minimum inhibitory concentration for E. coli (Table 8).
SMILES,HD10 (red blood cells),HD50 (red blood cells),MBC E. coli (E. coli strain ATCC25922) [µM],MBC S. aureus [1] [µM],MIC S. aureus [1] [µM],MIC E. coli (E. coli strain ATCC25922) [µM],Selectivity [HD10/MIC (E. coli)] (E. coli)
C[C@@H](c1ccccc1)N(CC(=O)N(CCCCN)CC(=O)N(CC(=O)N(CC(=O)N(CCCCN)CC(=O)N(CC(=O)N(CC(N)=O)Cc1ccccc1)Cc1ccccc1)[C@@H](C)c1ccccc1)[C@@H](C)c1ccccc1)C(=O)CN(C(=O)CN(CCCCN)C(=O)CN(Cc1ccccc1)C(=O)CN(Cc1ccccc1)C(=O)CNCCCCN)[C@@H](C)c1ccccc1 [compound 16] (H-[Nlys][Nphe][Nphe][Nlys][Nspe][Nspe][Nlys][Nspe][Nspe][Nlys][Nphe][Nphe]-NH2),53.0,> 200,6.3,3.1,1.6,,
C[C@@H](c1ccccc1)N(CC(=O)N(CC(=O)N(CCCCN)CC(=O)N(CC(=O)N(CC(=O)N(CCCCN)CC(=O)N(CC(=O)N(CC(N)=O)Cc1ccccc1)Cc1ccccc1)Cc1ccccc1)Cc1ccccc1)Cc1ccccc1)C(=O)CN(CCCCN)C(=O)CN(Cc1ccccc1)C(=O)CN(Cc1ccccc1)C(=O)CNCCCCN [compound 5] (H-[Nlys][Nphe][Nphe][Nlys][Nspe][Nphe][Nlys][Nphe][Nphe][Nlys][Nphe][Nphe]-NH2),,195.0,12.5,3.1,3.1,12.5,
C[C@@H](c1ccccc1)N(CC(=O)N(CC(=O)N(CCCCN)CC(=O)N(CC(=O)N(CC(N)=O)Cc1ccccc1)Cc1ccccc1)Cc1ccccc1)C(=O)CN(CCCCN)C(=O)CN(Cc1ccccc1)C(=O)CN(Cc1ccccc1)C(=O)CN(CCCCN)C(=O)CN(Cc1ccccc1)C(=O)CN(Cc1ccccc1)C(=O)CNCCCCN [compound 7] (H-[Nlys][Nphe][Nphe][Nlys][Nphe][Nphe][Nlys][Nspe][Nphe][Nlys][Nphe][Nphe]-NH2),,> 200,25,3.1,3.1,12.5,
C[C@@H](c1ccccc1)N(CC(N)=O)C(=O)CN(C(=O)CN(CCCCN)C(=O)CN(Cc1ccccc1)C(=O)CN(Cc1ccccc1)C(=O)CN(CCCCN)C(=O)CN(Cc1ccccc1)C(=O)CN(Cc1ccccc1)C(=O)CN(CCCCN)C(=O)CN(Cc1ccccc1)C(=O)CN(C(=O)CNCCCCN)[C@@H](C)c1ccccc1)[C@@H](C)c1ccccc1 [compound 14],53.9,199.6,12.5,1.6,1.6,12.5,4.3
C[C@@H](c1ccccc1)N(CC(=O)N(CC(N)=O)Cc1ccccc1)C(=O)CN(CCCCN)C(=O)CN(Cc1ccccc1)C(=O)CN(Cc1ccccc1)C(=O)CN(CCCCN)C(=O)CN(Cc1ccccc1)C(=O)CN(Cc1ccccc1)C(=O)CN(CCCCN)C(=O)CN(Cc1ccccc1)C(=O)CN(Cc1ccccc1)C(=O)CNCCCCN [compound 9] (H-[Nlys][Nphe][Nphe][Nlys][Nphe][Nphe][Nlys][Nphe][Nphe][Nlys][Nspe][Nphe]-NH2),54.4,> 200,25,3.1,3.1,12.5,4.3
C[C@@H](c1ccccc1)N(CC(=O)N(CCCCN)CC(=O)N(CC(=O)N(CC(N)=O)Cc1ccccc1)Cc1ccccc1)C(=O)CN(Cc1ccccc1)C(=O)CN(CCCCN)C(=O)CN(Cc1ccccc1)C(=O)CN(Cc1ccccc1)C(=O)CN(CCCCN)C(=O)CN(Cc1ccccc1)C(=O)CN(Cc1ccccc1)C(=O)CNCCCCN [compound 8] (H-[Nlys][Nphe][Nphe][Nlys][Nphe][Nphe][Nlys][Nphe][Nspe][Nlys][Nphe][Nphe]-NH2),88.5,> 200,25,3.1,3.1,12.5,7.1
C[C@@H](c1ccccc1)N(CC(=O)N(CC(=O)N(CCCCN)CC(=O)N(CC(=O)N(CC(=O)N(CCCCN)CC(=O)N(CC(=O)N(CC(=O)N(CCCCN)CC(=O)N(CC(=O)N(CC(N)=O)Cc1ccccc1)Cc1ccccc1)Cc1ccccc1)Cc1ccccc1)Cc1ccccc1)Cc1ccccc1)Cc1ccccc1)C(=O)CNCCCCN [compound 3] (H-[Nlys][Nspe][Nphe][Nlys][Nphe][Nphe][Nlys][Nphe][Nphe][Nlys][Nphe][Nphe]-NH2),112.7,> 200,25,3.1,3.1,25,4.5
C[C@@H](c1ccccc1)N(CC(N)=O)C(=O)CN(Cc1ccccc1)C(=O)CN(CCCCN)C(=O)CN(Cc1ccccc1)C(=O)CN(Cc1ccccc1)C(=O)CN(CCCCN)C(=O)CN(Cc1ccccc1)C(=O)CN(Cc1ccccc1)C(=O)CN(CCCCN)C(=O)CN(Cc1ccccc1)C(=O)CN(C(=O)CNCCCCN)[C@@H](C)c1ccccc1 [compound 12],79.7,> 200,25,3.1,3.1,12.5,6.4
C[C@@H](c1ccccc1)N(CC(=O)N(CCCCN)CC(=O)N(CC(=O)N(CC(=O)N(CCCCN)CC(=O)N(CC(=O)N(CC(N)=O)Cc1ccccc1)Cc1ccccc1)Cc1ccccc1)Cc1ccccc1)C(=O)CN(Cc1ccccc1)C(=O)CN(CCCCN)C(=O)CN(Cc1ccccc1)C(=O)CN(Cc1ccccc1)C(=O)CNCCCCN [compound 6] (H-[Nlys][Nphe][Nphe][Nlys][Nphe][Nspe][Nlys][Nphe][Nphe][Nlys][Nphe][Nphe]-NH2),101.4,185.4,25,3.1,3.1,12.5,
C[C@@H](c1ccccc1)N(CC(N)=O)C(=O)CN(Cc1ccccc1)C(=O)CN(CCCCN)C(=O)CN(Cc1ccccc1)C(=O)CN(Cc1ccccc1)C(=O)CN(CCCCN)C(=O)CN(Cc1ccccc1)C(=O)CN(Cc1ccccc1)C(=O)CN(CCCCN)C(=O)CN(Cc1ccccc1)C(=O)CN(Cc1ccccc1)C(=O)CNCCCCN [compound 10],103.3,> 200,25,3.1,3.1,12.5,

# — patent US10815275B2, “Antimicrobial peptoids with improved selectivity and use thereof” (priority 2018, dated 2020)
